According to patent US20170305882A1, “BENZYL SUBSTITUTED INDAZOLES AS BUB1 KINASE INHIBITORS” (Bayer Pharma Aktiengesellschaft, priority 2014, published 2017):

Tests used:
[1] = target: T1, (recombinant) catalytic domain of human Bub1 (amino acids 704-1085) (Homo sapiens, UniProt O43683); assay: Bub1 kinase assay (TR-FRET); assay type: biochemical; conditions: ATP 10 μM, 60 min reaction, pH 7.5; read-out: Biological Assay 1: Bub1 kinase assay median IC50
T1 construct: catalytic domain of human Bub1 (amino acids 704-1085); 6xHis (N); made in house; host or cells: Hi5 insect cells
T1 sequence (O43683 704-1085): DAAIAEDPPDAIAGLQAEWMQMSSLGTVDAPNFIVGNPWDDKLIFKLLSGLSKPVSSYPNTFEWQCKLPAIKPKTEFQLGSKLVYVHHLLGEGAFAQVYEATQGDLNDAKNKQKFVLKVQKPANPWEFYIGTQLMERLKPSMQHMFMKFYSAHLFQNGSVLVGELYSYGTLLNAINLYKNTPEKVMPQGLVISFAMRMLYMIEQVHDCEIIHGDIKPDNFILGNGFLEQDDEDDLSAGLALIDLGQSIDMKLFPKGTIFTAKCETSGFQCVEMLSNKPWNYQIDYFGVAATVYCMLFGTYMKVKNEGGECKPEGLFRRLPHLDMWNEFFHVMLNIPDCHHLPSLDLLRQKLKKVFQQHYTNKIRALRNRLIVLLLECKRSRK

[2] = system: HeLa human cervical tumor cells; assay: Proliferation Assay (HeLa + Paclitaxel); assay type: cell-based; conditions: 3 nM paclitaxel, test substance 92 hours; read-out: Biological Assay 3: Proliferation Assay (HeLa + Paclitaxel) IC50
Excerpt: Proliferation Assay (HeLa+Paclitaxel):

[3] = system: pre-induced phospho-histone 2A (kinase activity of Bub1); assay: H2A Abrogation-Assay (cell-based mechanistic assay, pre-treatment with Nocodazole); conditions: Nocodazole 16 h, then test compound 1 h; read-out: Biological Assay 4:2: H2A Abrogation IC50
Excerpt: Biological Assay 4.2: Abrogation-Assay
This assay measures the inhibition of histone 2A phosphorylation, which was induced by pre-treatment of the cells with Nocodazole, by a Bub1 kinase inhibitor.

[4] = system: histone 2A phosphorylation (kinase activity of Bub1); assay: H2A Formation-Assay (cell-based mechanistic assay, co-treatment with Nocodazole); conditions: 16 h, read-out: Biological Assay 4.1: H2A Formation IC50
Description: Cell-Based Mechanistic Assay: Changes of Phosphorylation Status of Histone 2A by Inhibition of Kinase Activity of Bub1
This assay determines the suppression of histone 2A phosphorylation by a Bub1 kinase inhibitor during co-treatment with Nocodazole. 25000 cells (cells were ordered from ATCC) were seeded in 96well plate for 5 h at 37° C. Cells were treated with Nocodazole (1 μg/ml) and varying concentrations (between 3 nM and 10 μM) of test compounds for 16 h. Cells were fixed (20 min, Fixing solution R&D), washed three times with PBS and blocked with Odyssey blocking buffer before incubating with the primary antibody against phosphorylated H2A (5 μg/ml ABIN482721) overnight at 2-8° C. After washing, secondary IRDye-labeled antibody mix with cell stains was added for 1 h and washed again with PBS. Plates were scanned with LICor Odyssey Infrared Imager CLx at 800 nm for P-H2A and at 700 nm for cell stains Draq5/Sapphire. The quotient of 800 nm and 700 nm for Nocodazole only treated cells was set as 100% and the quotient of 800 nm and 700 nm of untreated cells was set as 0%. […] The IC50 values were determined by means of a 4 parameter fit.

[5] = system: HeLa human cervical tumor cells; assay: Proliferation assay (HeLa cell line); assay type: cell-based; conditions: 96 h, 4 days incubation, crystal violet, read-out: Biological Assay 2: Proliferation assay (HeLa cell line) median IC50
Excerpt: Human tumour cells were originally obtained from the American Type Culture Collection (ATCC), the Deutsche Sammlung von Mikroorganismen und Zellkulturen (DSMZ, German Collection of Microorganisms and Cell Cultures), or Epo GmbH Berlin.

Structure (SMILES)	IC50 [1] [nM]	IC50 [2] [nM]	IC50 [3] [nM]	IC50 [4] [nM]	IC50 [5] [nM]
Cc1nccc(Nc2nc(-c3nn(Cc4c(F)cc(OCC(F)F)cc4F)c4ccccc34)ncc2OCCCO)n1 [Example 2-1-21, 3-[(2-{1-[4-(2,2-difluoroethoxy)-2,6-difluorobenzyl]-1H-indazol-3-yl}-4-[(2-methylpyrimidin-4-yl)amino]pyrimidin-5-yl)oxy]propan-1-ol]	11	170	56	26	> 10000
Cc1nccc(Nc2nc(-c3nn(Cc4c(F)cc(OCC5CC5)cc4F)c4ccccc34)ncc2OCCCO)n1 [Example 2-1-24, 3-[(2-{1-[4-(cyclopropylmethoxy)-2,6-difluorobenzyl]-1H-indazol-3-yl}-4-[(2-methylpyrimidin-4-yl)amino]pyrimidin-5-yl)oxy]propan-1-ol]	23	330	0.85	2.1	9940
OCCCOc1cnc(-c2nn(Cc3c(F)cc(OCC(F)F)cc3F)c3ccccc23)nc1Nc1ccncc1Cl [Example 2-1-26, 3-[(4-[(3-chloropyridin-4-yl)amino]-2-{1-[4-(2,2-difluoroethoxy)-2,6-difluorobenzyl]-1H-indazol-3-yl}pyrimidin-5-yl)oxy]propan-1-ol]	14	64	38	14	3790
